# Source: patent US6444640B1, “Compositions of trail and DNA damaging drugs and uses thereof” (Ludwig Institute for Cancer Research, priority 1999, dated 2002)
# Like-named read-outs stand apart in the source and are kept apart here.
# How the values were obtained:
# [1] = tested on: DR5; assay: Northern blot of DR5 expression in human glioma cell lines after drug treatment; format: cell-based; conditions: for basal level expression of ~4.4Kb DR5 transcripts after contact with drug: U87MG, A1207, U178 cells, Northern blot
# Experimental: This first set of experiments was designed to determine whether chemotherapeutic agents which are used in treating gliomas could upregulate expression of DR5 in human glioma cell lines. This was apreliminary step to determine if wild type p53, which is found in de novo glioblastomas, could be exploited.
# The human glioblastoma cell lines U87MG, A1207, and U178 were used. The first two of these cell lines are homozygous for wild type p53, while U178 cells express a wild type allele, and an allele with a mutation at codon 271. Samples of cells were treated with one of cis-diamminedichloroplatinum (II) (“CDDP” hereafter), ectoposide (“VP16” hereafter), or chloroethyl)-BCNU. The U87MG and U178 cells received either 0, 1, or 4 ug/ml doses of CDDP; 0, 8, or 16 ug/ml doses of VP16, or 0, 100, or 200 μM doses of BCNU. The A1207 cells received 0, 5, or 20 ug/ml of CDDP, 0, 8 or 16 ug/ml of VP16, or 0, 100, or 200 μM doses of BCNU.
# The cells were treated with the drug at an indicated dosage for 16 hours, after which they were harvested, and total RNA was extracted, following standard methods. Then, 15 ug samples were size fractionated on a 1% agarose formaldehyde gel, and transferred to a nylon membrane. These samples were then probed with a human DR5 cDNA probe, 583 base pairs long. This had beenz prepared via RT-PCR of total RNA of U87MG cells using:
# The hybridization was carried out at 68° C. for 2 hours, followed by washing in 0.5×SSC and 0.1% SDS at 58° C. for 15 minutes. The membranes were then exposed to film at −80° C. with an intensifying screen. In order to confirm that RNA had in fact been loaded, 28SrRNA was stained with methylene blue.
# [2] = tested on: astrocytes from p53 knockout mice; conditions: in vitro; cited from earlier work
# [3] = tested on: poly (ADP-ribase) polymerase; assay: Western blot for PARP cleavage (activation of effector caspases); format: cell-based, human; conditions: 24 hours after treatment
# Experimental: The direct assessment of activation of effector caspases was examined by assaying for cleavage of poly (ADP-ribase) polymerase, or “PARP”, after treatment with combinations of a DNA damaging agent (CDDP or VP16), TRAIL, DR5-Fc or Fc, and the caspase inhibitor, Z-Asp-CH2-DCB. This was determined via Western blotting, where 20 ug of clarified protein lysate was loaded onto SDS gels 24 hours after treatment, electrophoresed, transferred to membranes, and then probed with monoclonal antibodies against PARP. Full length PARP has a molecular weight of about 116 kilodalton and, when cleaved, one fragment is 85 kilodaltons.
# [4] = tested on: U87MG cells; assay: Subcutaneous U87MG tumors in nude mice, Example 7; format: in vivo; conditions: single agent
# Experimental: To test this, U87MG cells (2×10^6) were suspended in 0.1 ml PBS, and then injected subcutaneously into the right flank of 4-5 week old female nude mice, of BALB/C background. Tumors were permitted to become established, and then grow for 20 days, reaching an approximate innate volume of 150 mm^3. Then, either CDDP (3 mg/kg), or sterile normal saline was administered intraperitoneally on days 20,21,22,30,31, and 32. Mice also received either fusion protein FLAG-TRAIL (200 ug), or a mock control. The FLAG-TRAIL fusion protein described by Degli-Esposti, et al., J. Exp. Med 186: 1165-1170 (1997), incorporated by reference, was prepared via standard recombinant methods. Mock controls were prepared by carrying out the same protocol used to produce the FLAG-TRAIL, but without a vector which encoded the fusion protein. Cell lysate was used as the control. The FLAG-TRAIL or control was administered via intraveneous and intraperitoneal injections 16 hours and 24 hours following CDDP treatment, i.e., on days 21,22,23, 31,32 and 33. Growth of the tumors was measured at 2 day intervals, in accordance with Huang, et al., J. Biol Chem 272: […] (1997).
# [5] = tested on: U87MG cells; assay: MTT survival assay; conditions: for cell viability, single agent: TRAIL 0.1 ug/ml, CDDP 4 ug/ml, VP16 16 ug/ml, 24 hours
# Experimental: (§1) Experiments were then carried out to determine if combining TRAIL with the damaging agents would enhance cytotoxicity. The method employed to determine if combining TRAIL with the damaging agents would enhance cytotoxicity was the 3-(4,5-dimethylthiazol-2-yl)-2,5-diphenyl tetrazolum bromide (“MTT”) survival assay, described by Mosmann, et al., J. Immunol. […] Cells (U87MG) were plated, at 1×10^4 cells/well in 96 well microtiter plates overnight.
# (§2) The cytotoxic effect of TRAIL, in combination with one of the DNA damaging agents discussed supra, i.e., CDDP, VP16, as BCNU was tested, by either adding TRAIL alone, the drug alone, or TRAIL plus the drug, in a two component combination, with DR5-Fc, referred to supra, or with Fc. The dosages were as provided supra.
# [6] = tested on: U87MG cells; assay: Apoptosis of U87MG cells (TUNEL, flow cytometry) with caspase inhibitor; format: cell-based, human
# Experimental: In these experiments, the mechanism by which the cell death caused by combination of TRAIL and DNA damaging agents was studied further. U87MG cells were plated overnight, and then treated with either TRAIL alone (0.1 ug/ml), CDDP alone (4 ug/ml) VP16 alone (16 ug/ml) TRAIL and CDDP, at the recited doses, or TRAIL plus VP16, at the recited doses. The cells were treated for 44 hours, collected, fixed in 2% formaldehyde, and permeabilized in 0.05% Tween-20 in bovine serum albumin solution.
# The cells were then incubated with TUNEL (terminal deoxynucleotidyl transferase mediated nick end labeling) solution, at 37° C. for 1 hour. Those cells which stained positively with fluorescein were analyzed via flow cytometry. The morphology of the dead cells was typical of apoptosis.
# TRAIL is known to induce apoptosis through activation of effector caspases. See, e.g., Wu, et al., Nature Genet 17: 141-143 (1997); Wiley et al., Immunity 3: 673-682 (1995); Pitti, et al., J. Biol Chem 271: 12687-12690 (1996); Pan, et al., Science 277: 815-818 (1997); Sheridan, et al., Science 277: 818-821 (1997); Walczak, et al., EMBO J. 16: 5386-5397 (1997).
# [7] = tested on: U87MG cells
# Experimental: as §1, §2
molecule,measurement,setting,value
"O=NN(CCCl)C(=O)NCCCl [BCNU, 1,3 bis (2-chloroethyl)-1-nitrosourea]",basal level expression of ~4.4Kb DR5 transcripts after contact with drug,[1],lesser effect
same,sensitivity of p53 knockout astrocytes compared with wild type astrocytes,[2],more sensitive
"N.N.[Cl][Pt][Cl] [CDDP, cis-diamminedichloroplatinum (II)]",basal level expression of ~4.4Kb DR5 transcripts after contact with drug,[1],increased significantly
same,time of contact needed for induction of DR5,[1]; glioblastoma cell lines,16 h
same,PARP cleavage product (85 kilodaltons),[3],not
same,tumor growth compared with combined drugs,[4],grew significantly faster
same,"cell viability, single agent",[5],sublethal
"COc1cc([C@@H]2c3cc4c(cc3[C@@H](O[C@@H]3O[C@@H]5CO[C@@H](C)O[C@H]5[C@H](O)[C@H]3O)[C@H]3COC(=O)[C@H]23)OCO4)cc(OC)c1O [VP16, ectoposide]",basal level expression of ~4.4Kb DR5 transcripts after contact with drug,[1],increased significantly
same,PARP cleavage product (85 kilodaltons),[3],not
same,"cell viability, single agent",[5],sublethal
O=C(O)C[C@H](NC(=O)OCc1ccccc1)C(=O)COC(=O)c1c(Cl)cccc1Cl [Z-Asp-CH2-DCB],"apoptosis on treatment with TRAIL, one of CDDP or VP16, and the caspase inhibitor",[6],did not induce apoptosis
same,effect on PARP cleavage elicited by TRAIL and CDDP or VP16,[3],inhibited
same,effect on synergistic cytotoxicity of TRAIL plus DNA damaging agent,[5]; added to TRAIL plus CDDP or VP16,at levels obtained for single drugs
DR5-Fc: a soluble fusion protein that competes for TRAIL,effect on PARP cleavage elicited by TRAIL and CDDP or VP16,[3],inhibited
same,effect on synergistic cytotoxicity of TRAIL plus DNA damaging agent,[7],abolished
extracellular domain of DR4 expressed as a fusion protein with Fc: extracellular domain of DR4 expressed as a fusion protein with Fc,effect on synergistic cytotoxicity of TRAIL plus DNA damaging agent,[7],same elimination of synergistic cytotoxicity
TRAIL: tumor necrosis factor related apoptosis inducing ligand; given in vivo as fusion protein FLAG-TRAIL (protein) TSEETISTVQEKQQNISPLVRERGPQRVAAHITGTRGRSNTLSSPNSKNEKALGRKINSWESSRSGHSFLSNLHLRNGELVIHEKGFYYIYSQTYFRFQEEIKENTKNDKQMVQYIYKYTSYPDPILLMKSARNSCWSKDAEYGLYSIYQGGIFELKENDRIFVSVTNEHLIDMDHEASFFGAFLVG,PARP cleavage product (85 kilodaltons),[3],not
same,tumor growth compared with combined drugs,[4],grew significantly faster
same,"cell viability, single agent",[5],no effect on cell viability
same,reduction of amount of TRAIL necessary for efficacy in combination versus alone,[5]; in combination with DNA damaging agent,about 100 fold
